Common to all, as to assay type: cell-based
The target of experiment [1] is T1, P-selectin (Homo sapiens) (UniProt P16109).
T1 sequence (whole entry): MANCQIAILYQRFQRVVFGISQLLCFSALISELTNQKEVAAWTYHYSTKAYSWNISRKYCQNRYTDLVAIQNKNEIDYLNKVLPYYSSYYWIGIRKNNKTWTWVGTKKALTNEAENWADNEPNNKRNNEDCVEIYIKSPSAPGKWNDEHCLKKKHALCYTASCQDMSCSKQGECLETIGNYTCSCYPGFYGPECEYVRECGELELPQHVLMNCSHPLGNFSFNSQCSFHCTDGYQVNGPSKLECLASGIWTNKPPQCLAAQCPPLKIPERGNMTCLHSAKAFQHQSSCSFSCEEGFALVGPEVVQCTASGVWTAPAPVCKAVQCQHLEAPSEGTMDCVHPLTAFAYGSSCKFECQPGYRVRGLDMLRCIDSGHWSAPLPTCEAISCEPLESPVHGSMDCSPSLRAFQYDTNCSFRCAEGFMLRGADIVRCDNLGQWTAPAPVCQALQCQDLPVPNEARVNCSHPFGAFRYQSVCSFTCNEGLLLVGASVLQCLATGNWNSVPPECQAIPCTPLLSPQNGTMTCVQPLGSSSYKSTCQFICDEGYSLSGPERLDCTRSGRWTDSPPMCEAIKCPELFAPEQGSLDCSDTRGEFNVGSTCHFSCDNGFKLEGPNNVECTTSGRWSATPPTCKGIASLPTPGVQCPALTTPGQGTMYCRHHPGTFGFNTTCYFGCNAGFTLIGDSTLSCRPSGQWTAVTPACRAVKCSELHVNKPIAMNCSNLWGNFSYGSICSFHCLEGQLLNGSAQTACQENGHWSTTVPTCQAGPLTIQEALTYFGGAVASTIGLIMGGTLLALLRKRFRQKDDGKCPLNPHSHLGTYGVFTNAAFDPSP
The experiment can be described thus: (§1) Displacement of immobilized sulfatide from P-selectin transfected in african green monkey COS cells by IgG-based competitive ELISA.

For experiment [2], the target named is T2, P-selectin (Homo sapiens, UniProt P16109).
T2 sequence (P16109 whole entry): T1 sequence (whole entry)
The description is as §1.

Experiment [3] concerns the target T1, P-selectin (Homo sapiens). The experiment can be described thus: Inhibition of human P-selectin-dependent adhesion of activated platelets to HL60 cells after 30 mins by flow cytometry. Particulars: HL-60. (In general: In flow cytometry, cells or beads pass a laser one at a time.)
A short description of experiment [4]: Inhibition of human P-selectin receptor globulin adhesion to HL60 cells. Particulars: HL-60.

Active and inactive are the calls of the source. No cut-off for these calls is given here.

Take `CCCCCCCCCCCCCC(=O)OCC(COP(=O)(O)OCCN)OC(=O)CCCCCCCCCCCCC` (stereo unspecified): in experiment [1], the outcome was inactive.
As for `CCCCC/C=C/C/C=C/CCCCCCCC(=O)OC(COC(=O)CCCCCCCCCCCCCCC)COP(=O)(O)OCC(O)CO` (stereo unspecified) [PHOSPHATIDYL GLYCEROL], the IC50 (as a rule, the midpoint of a concentration-inhibition curve) in experiment [2] amounted to 1 µM. The inhibition (commonly the change of the read-out against control, counted positive when it falls) in experiment [3] stood at 0%.
For `CCCCCCCCCCCCCCCC(=O)OCC(CO[C@H]1O[C@H](CS(=O)(=O)O)[C@@H](O)[C@H](O)[C@H]1O)OC(=O)CCCCCCCCCCCCCCC` (stereo partly specified) [SULFONOQUINOVOSYL DIPALMITOYL GLYCERIDE], the results for the IC50 in experiment [2] and in experiment [4] were 5 µM and 40 µM, respectively. Further, the inhibition in experiment [3] was found to be 24%.

Source of the values: ChEMBL document CHEMBL1146397, “Isolation and structure determination of sulfonoquinovosyl dipalmitoyl glyceride, a P-selectin receptor inhibitor from the alga Dictyochloris fragrans” (J Nat Prod, 1997).
